Results taken from patent US20170354148A1, “SAFENED HERBICIDAL COMPOSITIONS CONTAINING HALAUXIFEN AND METHODS OF USE THEREOF IN BRASSICA SPECIES” (Dow AgroSciences LLC, priority 2016, published 2017).

Columns and labels:
Assay in all cases: Example 5 greenhouse trials, postemergence visual injury
[1] = test system: kale/Chinese kale (Brassica alboglabra, BRSAG)
[2] = test system: rutabaga (Brassica napus var. napobrassica, BRSNA)
[3] = test system: Nexera™ canola (Brassica napus, BRSNN-NEX)
[4] = test system: winter oilseed rape (Brassica napus, BRSNW)
[5] = test system: turnip or Polish canola (Brassica rapa, BRSRR)
[6] = test system: Roundup Ready® canola (Brassica napus, RR-BRSNN)

CCOC(=O)C1=NN(c2ccc(Cl)cc2Cl)C(C)(C(=O)OCC)C1 (racemic) [Mefenpyr-diethyl, diethyl (RS)-1-(2,4-dichlorophenyl)-5-methyl-2-pyrazoline-3,5-dicarboxylate]
0%: Percent (%) Visual Injury BRSAG Obs ([1]; safener alone 5 g ai/ha) | Percent (%) Visual Injury BRSAG Obs ([1]; safener alone 10 g ai/ha) | Percent (%) Visual Injury BRSAG Obs ([1]; safener alone 20 g ai/ha) | Percent (%) Visual Injury BRSAG Obs ([1]; safener alone 40 g ai/ha) | Percent (%) Visual Injury BRSNA Obs ([2]; safener alone 5 g ai/ha) | Percent (%) Visual Injury BRSNA Obs ([2]; safener alone 10 g ai/ha) | Percent (%) Visual Injury BRSNA Obs ([2]; safener alone 20 g ai/ha) | Percent (%) Visual Injury BRSNA Obs ([2]; safener alone 40 g ai/ha) | Percent (%) Visual Injury BRSNN-NEX Obs ([3]; safener alone 5 g ai/ha) | Percent (%) Visual Injury BRSNN-NEX Obs ([3]; safener alone 10 g ai/ha) | Percent (%) Visual Injury BRSNN-NEX Obs ([3]; safener alone 20 g ai/ha) | Percent (%) Visual Injury BRSNN-NEX Obs ([3]; safener alone 40 g ai/ha) | Percent (%) Visual Injury BRSNW Obs ([4]; safener alone 5 g ai/ha) | Percent (%) Visual Injury BRSNW Obs ([4]; safener alone 10 g ai/ha) | Percent (%) Visual Injury BRSNW Obs ([4]; safener alone 20 g ai/ha) | Percent (%) Visual Injury BRSNW Obs ([4]; safener alone 40 g ai/ha) | Percent (%) Visual Injury BRSRR Obs ([5]; safener alone 5 g ai/ha) | Percent (%) Visual Injury BRSRR Obs ([5]; safener alone 10 g ai/ha) | Percent (%) Visual Injury BRSRR Obs ([5]; safener alone 20 g ai/ha) | Percent (%) Visual Injury BRSRR Obs ([5]; safener alone 40 g ai/ha) | Percent (%) Visual Injury RR-BRSNN Obs ([6]; safener alone 5 g ai/ha) | Percent (%) Visual Injury RR-BRSNN Obs ([6]; safener alone 10 g ai/ha) | Percent (%) Visual Injury RR-BRSNN Obs ([6]; safener alone 20 g ai/ha) | Percent (%) Visual Injury RR-BRSNN Obs ([6]; safener alone 40 g ai/ha)
